How the values were obtained:
Assay type in all cases: in vivo, Spargue-Dawley rats
[1] = system: liver ischemia/reperfusion injury; assay: Bile flow during hepatic ischemia/reperfusion
Excerpt: (§1) The liver was then examined by the following assays.
(§2) Each data was expressed as mean±SD.

[2] = system: liver ischemia/reperfusion injury; assay: Bile juice ALP during hepatic ischemia/reperfusion; details: after 120 minutes of reperfusion, MA 100 mg/kg
Description: as §1
(§3) The collected blood samples were centrifuged at 4000 g×5 min to separate the plasma, and the levels of aspartate transaminase (AST), alanine transaminase (ALT), and alkaline phosphatase (ALP) in the bile juice were measured with an auto-analyzer (model H-747E, Hitachi Co., Tokyo). Lipid peroxide was followed as Masugi and Nagamura stated by thiobarbituric acid method using malondialdehyde (MDA) tetraethyl acetal as the standard and expressed results of MDA equivalents.
as §2

[3] = system: liver ischemia/reperfusion injury; assay: Plasma AST/ALT during hepatic ischemia/reperfusion
Description: as §1, §3, §2

[4] = system: liver ischemia/reperfusion injury; assay: Lipid peroxidation assay (liver MDA, thiobarbituric acid method); design: post-ischemic MDA levels in liver: unit not given here
Description: as §1, §3
(§4) Protein contents of the collected tissues were assayed with Lowry using bovine serum albumin as the standard. The collected tissue was fixed in saline buffered with 10% formaldehyde solution, embedded in paraffin wax, sliced into 5 μm thickness of each, stained with H&E staining method, and examined with a light microscope by a pathologist independently.
as §2

[5] = system: liver ischemia/reperfusion injury; assay: Histological investigation of the liver after hepatic I/R (H&E); details: 70 minutes of ischemia and 120 minutes of reperfusion; MA-treated ischemia group
Description: as §1, §4
Histological changes in liver after hepatic I/R were kept with the above biochemical experiments of plasma and bile juice analysis. The placebo group was shown on A (100×) and B (400×); wherein “1” is severe endothelial damage, “2” is bile duct dilation, “3,” is parenchyma edema with RBC congestion, “4,” is Cholestasis, and “5” is hepatocyte necrosis. […] The dilated bile duct might be attributed to ischemic process when the clamp was used to stop the blood flow and simultaneously obstruct the bile flow. Parenchyma edema and RBC congestion might develop from the inflammatory process during I/R process.

[6] = after 60 minutes of reperfusion, P<0.05
[7] = MA 100 mg/kg iv 10 min prior to reperfusion, 70 min ischemia, after 120-minute reperfusion, mean±SD
[8] = after 120 minutes of reperfusion, MA 100 mg/kg iv

Magnesium ascorbate
bile flow compared with the control group (sham) ([1]; P=0.21): significantly restored resemble to normal values | choleretic effect compared with the placebo group [1, 6]: significantly increased | secreted bile juice versus vehicle-treated ischemia group ([1]; after 120 minutes of reperfusion injury): significantly doubled | bile flow ([1]; after 120 minutes of reperfusion, MA 100 mg/kg iv, mean±SD): 1.353 ± 0.351 mL/h/kg | bile flow compared with the vehicle-treated ischemia group ([1]; from 60 minutes to 240 minutes of reperfusion, P<0.05): significantly restored | relief of the ALP in bile juice from I/R damage [2]: about 70% | bile ALP ([2]; mean±SD): 34.5±8.3 U/l | increase in AST and ALT activity versus vehicle-treated ischemia rats ([3]; 1 to 4 hours after reperfusion, MA 100 mg/kg, P<0.05): significantly suppressed | average plasma AST level [3, 7]: 2040±882 U/l | plasma ALT level [3, 7]: 4466±1745 U/l | plasma AST levels compared with the placebo group ([3]; after 30 minutes of reperfusion, P<0.05): significantly decreased | plasma AST levels compared with the placebo group [3, 6]: significantly decreased | decrease of the elevated serum ALT level [3, 8]: 69% | decrease of the elevated serum AST level [3, 8]: 78% | post-ischemic MDA levels in liver ([4]; 70 min ischemia and 120 min reperfusion, MA 100 mg/kg 10 min prior to reperfusion, mean±SD, P<0.02): 1054±414 | MDA concentration in liver tissue versus vehicle-treated ischemia group ([4]; MA 100 mg/kg infusion 10 minutes prior to reperfusion, after 120 minutes of reperfusion): significantly decreased | histological findings of the liver (H&E) [5]: minor lesions were observed, damaged to the vascular endothelium and cholestasis was also mild

From US20060030620A1, “Method for treating and/or preventing ischemia/reperfusion injury” (priority 2004, published 2006)
